Test results from patent publication US20250186421A1, “METHODS OF TREATING INFLAMMATORY AND/OR ALLERGIC DISORDERS WITH NORKETOTIFEN” (Bridge Pharma, Inc., priority 2025, published 2025).
Read-outs that look alike come from different tables or passages of the source. Marks after values point to notes of the source that are not given here.

How the values were obtained:
[1] = system: atopic dermatitis; conditions: 16 weeks, 224 subjects, cited from earlier work
[2] = dog, in vivo
Experimental: In the Phase 2 study described herein, doses of 4 mg (maintenance) and 8 mg (loading) were used, with very good effects and with no toxicity. The margin of safety (MOS) was calculated by dividing animal: human doses in mg/kg, or dividing animal systemic exposure (AUC) at no adverse effect level (NOAEL) (a 28-day dog study), with human systemic exposure AUC (from human Phase 1 study), or by dividing animal: to human dose expressed in m2 (body surface area—BSA), or by calculating HED (human equivalent dose).

[3] = PK parameters in plasma and skin of dogs after 28 days of oral dosing; format: in vivo; conditions: for AUC(0-inf): N=5; for MRT / half-life: dog, po
Excerpt: However, for the treatment of the dermal and pulmonary disorders described herein for treatment efficacy, the dermal/pulmonary exposure are more important than systemic exposure, that is, efficacy depends on the skin/pulmonary AUC/Cmax, which are considered to be sites of action for these conditions. The pharmacokinetic parameters in skin and plasma after oral dosing of norketotifen to dogs (N=5) are shown below.

[4] = Phase 1 study, 8 mg/day for 7 days, plasma steady-state; format: in vivo, human; conditions: 8 mg/day for 7 days Phase 1 study
[5] = Fed and fasted oral administration of norketotifen to dogs (food effect PK); format: in vivo; conditions: 4 mg/kg oral; for AUC(0-inf) / Cmax: dog, plasma, po, 4 mg/kg
Experimental: Norketotifen was administered to dogs with and without food. For fed animals, canned food (one can (374 g) of Lamb Ground Dinner with Chicken & Rice per dog was weighed then offered for a period of 30 min prior to dosing at 4 mg/kg. After dosing, dry food (25% protein) was offered. For fasted animals, dogs were fasted overnight and until 4 h post dose and then offered dry food. The results are given in Table 2.

[6] = Incidence of vomiting in dogs administered norketotifen as a function of Cmax and AUC; format: in vivo; conditions: FIGS. 1 and 2
[7] = Accumulation of norketotifen in skin after oral administration; format: in vivo; conditions: read-out: Terminal half-life (t1/2e)
Excerpt: As used herein, the term biophase refers to the site(s) where a drug expresses its therapeutic activity. […] Thus, norketotifen can advantageously be used to treat dermal inflammatory and/or allergic diseases.

[8] = system: atopic dermatitis; assay: Phase 2a study of oral norketotifen in atopic dermatitis; format: in vivo, human
Experimental: The efficacy and safety of norketotifen orally administered to human subjects over a 28 day period were determined in a Phase 2 study. Norketotifen efficacy was compared to the clinical data in the prescribing information for Eucrisa® by dermal application; and compared to the clinical data in the prescribing information (product monograph) for Dupixent® by subcutaneous administration. In the Phase 2a study, 8 subjects were administered Placebo and 16 subjects were administered norketotifen. Oral norketotifen was administered at 4 mg BID (twice per day) for 4 days, followed by 4 mg QD (once per day). The duration of the study was 4 weeks. The parameters determined were: IGA score, Investigator's Global Assessment scale. The scale is as follows: • 0=clear—No inflammatory signs of atopic dermatitis (no erythema, no induration/papulation, no lichenification, no oozing/crusting). Post-inflammatory hyperpigmentation and/or hypopigmentation may be present. • 1=almost clear—Barely perceptible erythema, barely perceptible induration/papulation, and/or minimal lichenification. No oozing or crusting. • 2=mild—Slight but definite erythema (pink), slight but definite induration/papulation, and/or slight but definite lichenification. No oozing or crusting. • 3=moderate—Clearly perceptible erythema (dull red), clearly perceptible induration/papulation, and/or clearly perceptible lichenification. Oozing and crusting may be present. • 4=severe—Marked erythema (deep or bright red), marked induration/papulation, and/or marked lichenification. Disease is widespread in extent. Oozing or crusting may be present. In the IGA assessment, a responder was identified as a subject with IGA 0 or 1 (clear or almost clear) after treatment. A partial responder was defined as having an IGA score>1, but less than the initial score recorded on Day 1. A non-responder is a subject in which the initial IGA score was identical to the IGA score at the end of treatment (i.e. no change in score numbers). […] In Table 4, the results for norketotifen were compared to the results from the Dupixent® prescribing information.

[9] = Distribution of norketotifen to the lungs after oral administration; format: in vivo; conditions: lung / plasma, read-out: Lung concentration relative to plasma concentration
Excerpt: Norketotifen, after oral administration, is rapidly absorbed and is also preferentially distributed to the lungs, where the concentration of RS-norketotifen can reach concentrations that may be 100 times higher than the plasma concentration.

[10] = Fast (fasted overnight until 4 h post dose)
[11] = oral 4 mg BID for 4 days, then 4 mg QD for 24 days, 4 weeks, 16 subjects

**Q.** For “Dupilumab: recombinant human IgG4 monoclonal antibody binding IL-4Rα, inhibits IL-4 and IL-13 signaling; subcutaneous injection”, which “IGA scores ≤1, percent responders” value ([1]; 300 mg Q2W subcutaneous) is on record?
**A.** 37.9%

**Q.** What about the “NRS ≥4 score improvement, percentage response for dupilumab group” value ([1]; pruritus NRS 0-10, 300 mg Q2W) of the same compound?
**A.** 40.8%

**Q.** Which results are given for `O=C1Cc2ccccc2C(=C2CCNCC2)c2ccsc21` (racemic) [norketotifen]?
**A.** Margin of safety (animal: human), Systemic exposure (AUC0-inf.) ([2]; 2 mg): 127-fold; Margin of safety (animal: human), Systemic exposure (AUC0-inf.) ([2]; 4 mg): 72-fold; Margin of safety (animal: human), Systemic exposure (AUC0-inf.) ([2]; 16 mg): 19-fold; Margin of safety (animal: human), Systemic exposure (AUC0-inf.) ([2]; 32 mg): 6-fold; Margin of safety (animal: human), Systemic exposure (AUC0-inf.) ([2]; 64 mg): 3-fold; AUC(0-inf) ([3]; dog plasma, after 28 days of oral dosing): 4520 ng·h/mL; AUC(0-inf) ([3]; dog skin, after 28 days of oral dosing): 46100 ng·h/mL; MRT ([3]; plasma, dog plasma, after 28 days of oral dosing, read-out: MRT (mean residence time)): 17.5 h; half-life ([3]; plasma, dog plasma, after 28 days of oral dosing, read-out: t ½(e) (converted)): 38.3 h; MRT ([3]; skin, dog skin, Phase 2 = 14 day post dosing period, read-out: MRT (phase 2)): 159 h; half-life ([3]; skin, dog skin, Phase 2 = 14 day post dosing period, read-out: t ½(e) (phase 2) (converted)): 160 h; MRT ([3]; skin, dog skin, after 28 days of oral dosing, read-out: MRT (mean residence time)): 86.5 h; half-life ([3]; skin, dog skin, after 28 days of oral dosing, read-out: t ½(e) (converted)): 25.4 h; Time to plasma steady-state [4]: ≤ 4 days; % difference in AUC0-∞, fed vs fasted (reduction in fed animals) [5]: 26%; AUC(0-inf) [5, 10]: 522 ng·h/mL; Cmax [5, 10]: 93 ng/mL; AUC(0-inf) ([5]; Fed): 390 ng·h/mL; Cmax ([5]; Fed): 58 ng/mL; Incidence of vomiting vs systemic Cmax and AUC [6]: incidence of vomiting increases as both systemic Cmax and AUC increase; half-life [7]: 144 to 168 h; Safety/tolerability in the safety population ([8]; 28 days oral treatment, adverse event in only one patient, resolved completely): well-tolerated, with no reported instances of serious adverse events or treatment-related adverse events; Toxicity at Phase 2 doses ([8]; doses of 4 mg (maintenance) and 8 mg (loading)): no toxicity; Nausea or vomiting when dosed on a full stomach ([8]; human subjects, with food, up to a dose of 16 mg): no nausea or vomiting was noted; % reduction of affected BSA (Baseline to Day 29) ([8]; oral 4 mg BID for 4 days, then 4 mg QD for 24 days): −63.3%^; IGA scores >1, but less than the initial scores on Day 1 (partial responders) [8, 11]: 50%; Non responders at all [8, 11]: 6.1%; IGA scores ≤1, percent responders ([8]; oral 4 mg BID for 4 days, then 4 mg QD for 24 days, 4 weeks, 16 subjects, p = 0.0095 / 0.0031 vs Placebo (Fisher's exact test)): 43.89% ^b; Pruritus, score 0, percentage improvement for NK group ([8]; pruritus severity scale 0-3, 4 weeks, p = 0.016 vs Placebo): 62.5%^c; Kp [9]: ~100
